Among the test systems are A498; ACHN; CCRF-CEM; EKVX; HCT-116; HCT-15; HOP-62; KM12; MCF7; MDA-MB-435; NCI-H226; NCI-H23; NCI-H460; RPMI-8226; SF-295; SK-OV-3; SNB-75; SR; TK-10; UO-31.
Assay in all cases: NCI-60 cell line screen, 48 h

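Assay format: 96-well plates, 48-hour exposure. GI50 marks 50% less growth.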 Activity calls are given as the source filed them. Cut-off read from the data, not from the text of the source: active = GI50 up to about 1.1 µM and inactive = higher.

For the compound `CC1=C2CC(C)(C)/C=C\C(=O)/C(C)=C\C3=C[C@H](C)C[C@]3(O2)C1=O`, the GI50 was 4.67 µM (inactive) in the assay with A498; 1.03 µM (active) in the assay with ACHN; 0.138 µM (active) in the assay on CCRF-CEM; 1.87 µM (inactive) in the assay on EKVX; 0.443 µM (active) in the assay with HCT-116; 0.627 µM in the assay with HCT-15. Also, the GI50 in the assay with HOP-62 was 6.43 µM (inactive); in the assay with KM12, 2.21 µM (inactive); with MCF7, 0.343 µM (active); in the assay with MDA-MB-435, 0.706 µM (active); in the assay on NCI-H226, 3.46 µM (inactive); with NCI-H23 it was 1.08 µM (active). For the same compound, the GI50 in the assay on NCI-H460 was 4.71 µM (inactive); in the assay with RPMI-8226, 0.326 µM (active); with SF-295, 8.87 µM (inactive); with SK-OV-3, 9.51 µM (inactive); with SNB-75, 4.1 µM (inactive); in the assay with SR it was 0.243 µM (active). The GI50 with TK-10 is 2.03 µM (inactive); with UO-31, 1.18 µM (inactive).

In the case of `CCc1c[n+]2c(cc1C1=CN3c4ccccc4[C@]45CCN6C/C(=C/CO)[C@H](C[C@H]64)[C@@H]([C@@H]1O)[C@H]35)-c1[nH]c3ccccc3c1CC2`, the GI50 in the assay on A498 was > 50 µM (inactive); in the assay on ACHN, > 50 µM (inactive); in the assay with CCRF-CEM, > 50 µM (inactive); with EKVX, > 50 µM (inactive); in the assay with HCT-116, > 50 µM (inactive); with HCT-15, > 50 µM. For the same compound, the GI50 with HOP-62, in the assay on KM12, in the assay on MCF7, in the assay on MDA-MB-435, in the assay with NCI-H226 and with NCI-H23 was > 50 µM (inactive) throughout. Besides, the GI50 in the assay on NCI-H460, in the assay with RPMI-8226, in the assay on SF-295, with SK-OV-3, with SNB-75 and with SR was > 50 µM (inactive) each time. For the same compound, the GI50 with TK-10 and in the assay on UO-31 was > 50 µM (inactive) throughout.

Take `CC(=O)Nc1cccc(N2C(=O)/C(=C\c3cccc(Oc4ccccc4)c3)S(=O)(=O)C2c2ccccc2)c1` (centres undefined): the GI50 with A498 was > 100 µM (inactive); in the assay with ACHN it was > 100 µM (inactive); with CCRF-CEM, 57.8 µM (inactive); with EKVX, 73.6 µM (inactive); with HCT-116, 34.1 µM (inactive); with HCT-15 it was > 100 µM. For the same compound, the GI50 is > 100 µM (inactive) in the assay with HOP-62; 68.5 µM (inactive) in the assay on KM12; 34 µM (inactive) in the assay with MCF7; 34 µM (inactive) in the assay on MDA-MB-435; > 100 µM (inactive) with NCI-H226; 97.7 µM (inactive) in the assay with NCI-H23. Moreover, the GI50 in the assay with NCI-H460 is > 100 µM (inactive); with RPMI-8226, 61.5 µM (inactive); in the assay on SF-295, 46.5 µM (inactive); in the assay on SK-OV-3 it was > 100 µM (inactive); with SNB-75, > 100 µM (inactive); in the assay on SR, 15.9 µM (inactive). Moreover, the GI50 is > 100 µM (inactive) in the assay with TK-10 and 33.1 µM (inactive) in the assay with UO-31.

In the case of `CCN1C[C@]2(C)CC[C@H](OCc3ccccc3)C34C5C[C@@H]6CC[C@](O)(C(C[C@@H]32)C14)C5[C@H]6OCc1ccccc1` (some centres undefined), the GI50 was > 100 µM (inactive) in the assay with A498; 32.4 µM (inactive) with ACHN; 56.5 µM (inactive) in the assay on CCRF-CEM; 44.7 µM (inactive) in the assay with EKVX; 42.7 µM (inactive) in the assay with HCT-116; > 100 µM with HCT-15. Also, the GI50 in the assay on HOP-62 was > 100 µM (inactive); in the assay with KM12, 38.5 µM (inactive); in the assay on MCF7 it was 7.01 µM (inactive); with MDA-MB-435, 90.8 µM (inactive); in the assay on NCI-H226 it was > 100 µM (inactive); with NCI-H23, > 100 µM (inactive). Moreover, the GI50 in the assay on NCI-H460 is 31.2 µM (inactive); in the assay on RPMI-8226 it was 31 µM (inactive); in the assay on SF-295, > 100 µM (inactive); in the assay on SK-OV-3 it was > 100 µM (inactive); with SNB-75, 49 µM (inactive); with SR, 54.8 µM (inactive). Besides, the GI50 with TK-10 was 45.8 µM (inactive); in the assay on UO-31, 73.1 µM (inactive).

For `CCC(O)(Cc1ccc(OC)cc1)c1ccc(OC)cc1` (centres undefined), the GI50 in the assay on A498 is > 100 µM (inactive); in the assay on ACHN it was > 100 µM (inactive); with CCRF-CEM, > 100 µM (inactive); in the assay with EKVX, > 100 µM (inactive); in the assay with HCT-116 it was > 100 µM (inactive); in the assay with HCT-15, > 100 µM. The GI50 in the assay with HOP-62, in the assay with KM12, with MCF7, with MDA-MB-435, in the assay on NCI-H226 and with NCI-H23 was > 100 µM (inactive) each time. Besides, the GI50 with NCI-H460 is > 100 µM (inactive); with RPMI-8226, > 100 µM (inactive); in the assay with SF-295, > 100 µM (inactive); in the assay on SK-OV-3, > 100 µM (inactive); in the assay with SNB-75, > 100 µM (inactive); in the assay on SR, 0.0641 µM (active). The GI50 in the assay on TK-10 and with UO-31 was > 100 µM (inactive) in each case.

On to `Nc1nc(Cl)c2ncn(Cc3ccccc3CCl)c2n1`, for which the GI50 is 20.5 µM (inactive) in the assay on A498; 5.69 µM (inactive) in the assay with ACHN; 17.7 µM (inactive) in the assay with CCRF-CEM; 15.9 µM (inactive) in the assay with EKVX; 3.95 µM (inactive) in the assay with HCT-116; 2.69 µM in the assay with HCT-15. In addition, the GI50 was 21.6 µM (inactive) in the assay with HOP-62; 15.7 µM (inactive) with KM12; 5.97 µM (inactive) with MCF7; 6.07 µM (inactive) in the assay on MDA-MB-435; 2.64 µM (inactive) in the assay on NCI-H226; 3.03 µM (inactive) in the assay on NCI-H23. In addition, the GI50 in the assay with NCI-H460 was 5.66 µM (inactive); in the assay on RPMI-8226, 11.3 µM (inactive); with SF-295 it was 7.4 µM (inactive); with SK-OV-3, 15.3 µM (inactive); in the assay with SNB-75, 8.13 µM (inactive); in the assay with SR, 3.34 µM (inactive). The GI50 in the assay with TK-10 is 17.7 µM (inactive); in the assay on UO-31, 15.7 µM (inactive).

Take `O=C(O)CCc1ccc(-c2ccccc2)[nH]1`: the GI50 was > 100 µM (inactive) with A498; > 100 µM (inactive) in the assay on ACHN; 70.6 µM (inactive) in the assay with CCRF-CEM; > 100 µM (inactive) in the assay with EKVX; > 100 µM (inactive) with HCT-116; > 100 µM in the assay on HCT-15. In addition, the GI50 with HOP-62, in the assay with KM12, in the assay on MCF7, in the assay with MDA-MB-435, in the assay on NCI-H226 and with NCI-H23 was > 100 µM (inactive) in each case. Also, the GI50 in the assay on NCI-H460, in the assay with RPMI-8226, in the assay on SF-295, in the assay on SK-OV-3, with SNB-75 and with SR was > 100 µM (inactive) in each case. Further, the GI50 in the assay on TK-10 and in the assay on UO-31 was > 100 µM (inactive) in each case.

Turning to `CC[P+](C#Cc1ccccc1)(c1ccccc1)c1ccccc1`, the GI50 in the assay on A498 is 8.17 µM (inactive); in the assay on ACHN it was 3.94 µM (inactive); in the assay with CCRF-CEM, 0.358 µM (active); with EKVX it was 2.26 µM (inactive); in the assay on HCT-116, 1.77 µM (inactive); in the assay on HCT-15, 3.19 µM. The GI50 in the assay with HOP-62 is 2.44 µM (inactive); with KM12, 1.22 µM (inactive); in the assay on MCF7, 3.09 µM (inactive); with MDA-MB-435 it was 1.24 µM (inactive); in the assay with NCI-H226, 2.82 µM (inactive); in the assay on NCI-H23, 2.17 µM (inactive). Moreover, the GI50 in the assay on NCI-H460 was 3 µM (inactive); in the assay with RPMI-8226, 0.242 µM (active); with SF-295, 7.03 µM (inactive); with SK-OV-3 it was 2.93 µM (inactive); in the assay with SNB-75, 1.78 µM (inactive); in the assay on SR, 2.33 µM (inactive). Moreover, the results for the GI50 with TK-10 and in the assay with UO-31 were 1.58 µM (inactive) and 6.93 µM (inactive), respectively.

Turning to `COc1ccc(CNC(C)C(=O)O)cc1` (centres undefined), the GI50 with A498 is > 100 µM (inactive); in the assay with ACHN it was > 100 µM (inactive); in the assay on CCRF-CEM, 19.7 µM (inactive); with EKVX, > 100 µM (inactive); with HCT-116, > 100 µM (inactive); in the assay on HCT-15, > 100 µM. Moreover, the GI50 in the assay on HOP-62, in the assay on KM12, in the assay with MCF7, in the assay on MDA-MB-435, with NCI-H226 and in the assay with NCI-H23 was > 100 µM (inactive) in each case. Moreover, the GI50 in the assay on NCI-H460, in the assay on RPMI-8226, in the assay with SF-295, in the assay on SK-OV-3, in the assay with SNB-75 and in the assay with SR was > 100 µM (inactive) throughout. In addition, the GI50 in the assay with TK-10 and in the assay on UO-31 was > 100 µM (inactive) throughout.

Regarding `CC(C)(CCC(C)(C)c1ccccc1)c1ccccc1`, the GI50 is 17.9 µM (inactive) in the assay with A498; 17.8 µM (inactive) in the assay on ACHN; 18.4 µM (inactive) in the assay with CCRF-CEM; 17.7 µM (inactive) in the assay with EKVX; 14.7 µM (inactive) in the assay with HCT-116; 20.9 µM in the assay on HCT-15. In addition, the GI50 in the assay with HOP-62 was 17.4 µM (inactive); with KM12, 15.3 µM (inactive); with MCF7, 17.9 µM (inactive); in the assay on MDA-MB-435 it was 21.9 µM (inactive); with NCI-H226 it was 20.7 µM (inactive); in the assay with NCI-H23 it was 18.2 µM (inactive). Moreover, the GI50 is 17.2 µM (inactive) in the assay on NCI-H460; 15.1 µM (inactive) in the assay on RPMI-8226; 17 µM (inactive) in the assay on SF-295; 27.1 µM (inactive) in the assay on SK-OV-3; 18 µM (inactive) with SNB-75; 21 µM (inactive) with SR. For the same compound, in the assay on TK-10, the GI50 is 21.6 µM (inactive).

The record behind these values is ChEMBL document CHEMBL1201862, “PubChem BioAssay data set” (2004).
